Data: patent US10253002B2, “Compounds and methods of treating infections” (Neoculi Pty Ltd., priority 2013, dated 2019)
Where “and” joins values, the source holds several entries; their conditions need not be identical. Identical values can stand only once. Like-named read-outs stand apart in the source and are kept apart here.

Key:
[1] = test system: VRE; assay: Broth microdilution MIC, Example 7 (NCL812 and analogues); type: cell-based, Enterococcus spp.; conditions: for activity against VRE among analogues: MIC testing, two VRE strains; for MIC (μg/ml) at 24 hours, VRE 1: isolate VRE 1; for MIC (μg/ml) at 24 hours, VRE 1 / MIC (μg/ml) at 24 hours, VRE 2: 1st and 2nd replicate rows; for MIC (μg/ml) at 24 hours, VRE 2: isolate VRE 2; for MIC: Enterococcus, VRE
Outline: (§1)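 Values are MICs in μg/ml from broth microdilution per CLSI, with growth scored against a drug-free well.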

[2] = test system: Escherichia coli; assay: as above; type: cell-based; conditions: 24 hours; for MIC (μg/ml) at 24 hours, E. coli: 1st and 2nd replicate rows
[3] = test system: Gram-negative bacteria (E. coli and Pseudomonas aeruginosa); assay: Testing of NCL812 analogues, Gram-negative antibacterial activity; type: cell-based; conditions: MIC testing
Description: Minimum inhibitory concentrations (μg/ml) were determined using the broth microdilution method recommended by the Clinical and Laboratory Standards Institute (CLSI). MIC breakpoints were determined by visual assessment and then confirmed using an ELISA plate reader, measuring absorbance levels at 600 nm. Bacterial growth (turbidity) in the wells with antimicrobial was compared with the amount of growth (turbidity) in the growth-control well (containing no antimicrobial). All isolates were tested in duplicate, if there was a difference of greater than one two-fold dilution in the results, the test was repeated a third time. The purity of the isolates was closely monitored during testing by subculturing the prepared bacterial inoculum onto SBA (sheep blood agar). The MICs of the control strains for the antimicrobial ampicillin were determined for each testing run as an internal quality control. The MIC50, […] and MIC range (minimum and maximum) were calculated for each of the bacterial groups.
MICs were determined against two MRSA strains, two VRE strains and one strain each of E. coli and Pseudomonas aeruginosa.

[4] = test system: MRSA; assay: Broth microdilution MIC, Example 7 (NCL812 and analogues); type: cell-based, Staphylococcus aureus; conditions: for activity against MRSA among analogues: MIC testing, two MRSA strains; for MIC (μg/ml) at 24 hours, MRSA 1: isolate MRSA 1; for MIC (μg/ml) at 24 hours, MRSA 1 / MIC (μg/ml) at 24 hours, MRSA 2: 1st and 2nd replicate rows; for MIC (μg/ml) at 24 hours, MRSA 2: isolate MRSA 2; for MIC: Staphylococcus aureus, MRSA
Outline: as §1

[5] = test system: Pseudomonas aeruginosa; assay: as above; type: cell-based; conditions: 24 hours
[6] = Bioassay ranking of the analogues tested; conditions: M + R (MRSA and VRE combined)
[7] = test system: Staphylococcus aureus T3-129 / Staphylococcus spp. MK1; assay: Synergy studies, checkerboard method (FIC index); type: cell-based; conditions: Staphylococcus spp. Strain MK1
[8] = test system: DNA synthesis in S. aureus ATCC 29213; assay: Macromolecular synthesis assay: DNA synthesis ([3H] thymidine); type: cell-based, Staphylococcus aureus; conditions: control; 8 fold the MIC (0.5 μg/mL)
Description: Cells were grown at 35° C. overnight on Trypticase Soy agar. A colony from the plate was used to inoculate 10 ml of Mueller Hinton broth II (MHBII), and the culture was grown to early exponential growth phase (OD600==0.2 to 0.3) while incubating in a shaker at 35° C. and 200 rpm.
When cells reached early exponential phase, 100 μL of culture was added to triplicate wells containing various concentrations of test compound or control antibiotics (5 μL) at 20× the final concentration in 100% DMSO. A 5% DMSO treated culture served as the “no drug” control for all experiments. Cells were added in MHBII at 105% to account for the volume of drug added to each reaction or in M9 minimal medium for protein synthesis reactions. Following 15 min incubation at room temperature, either [^3H] thymidine (DNA synthesis), [^3H] uridine (RNA synthesis) or [^3H] leucine (protein synthesis) was added at 0.5-1.0 μCi per reaction, depending on the experiment. Reactions were allowed to proceed at room temperature for 15-30 min and then stopped by adding 12 μL of cold 5% trichloroacetic acid (TCA) or 5% TCA/2% casamino acids (protein synthesis only). Reactions were incubated on ice for 30 min and the TCA precipitated material was collected on a 25 mm GF/A filter. After washing three times with 5 ml of cold 5% TCA, the filters were rinsed two times with 5 mL 100% ethanol, allowed to dry, and then counted using a Beckman LS3801 liquid scintillation counter.

SMILES	activity against VRE among analogues [1]	MIC (μg/ml) at 24 hours, VRE 1 ([1]; 24 hours) [µg/mL]	MIC (μg/ml) at 24 hours, VRE 2 ([1]; 24 hours)	MIC (μg/ml) at 24 hours, E. coli [2]	level of Gram-negative antibacterial activity among analogues [3]	activity against MRSA among analogues [4]	MIC (μg/ml) at 24 hours, MRSA 1 ([4]; 24 hours) [µg/mL]	MIC (μg/ml) at 24 hours, MRSA 2 ([4]; 24 hours) [µg/mL]	MIC (μg/ml) at 24 hours, P. aeruginosa ([5]; 1st and 2nd replicate rows) [µg/mL]	other results
Cl.N=C(N)N/N=C/c1cccc(C(F)(F)F)c1 [NCL043]	greatest activity	128	128 µg/mL and 64 µg/mL	128 µg/mL	highest level of Gram-negative antibacterial activity	greatest activity	128	128	128	–
Cl.N=C(N/N=C/c1cc(O)c(O)c(O)c1)N/N=C/c1cc(O)c(O)c(O)c1 [NCL097, 2,2′-bis[(3,4,5-trihydroxyphenyl)methylene]carbonimidic Dihydrazide Hydrochloride]	greatest activity	–	–	–	highest level of Gram-negative antibacterial activity	greatest activity	–	–	–	MIC ([1]; 24 h, read-out: MIC (μg/ml) at 24 hours, VRE 1, VRE 1, 24 hours, duplicate lines per compound): 32 µg/mL; MIC ([1]; 24 h, read-out: MIC (μg/ml) at 24 hours, VRE 2, VRE 2, 24 hours, duplicate lines per compound): 32 µg/mL; MIC ([2]; Escherichia coli, read-out: MIC (μg/ml) at 24 hours, E. coli, duplicate lines per compound): > 128 µg/mL; MIC ([4]; 24 h, read-out: MIC (μg/ml) at 24 hours, MRSA 1, MRSA 1, 24 hours, duplicate lines per compound): 128 µg/mL; MIC ([4]; 24 h, read-out: MIC (μg/ml) at 24 hours, MRSA 2, MRSA 2, 24 hours, duplicate lines per compound): 32 µg/mL; MIC (μg/ml) at 24 hours, P. aeruginosa ([5]; P. aeruginosa, duplicate lines per compound, Hydrochloride): >128 µg/mL; MIC ([5]; Pseudomonas aeruginosa, 24 h, read-out: MIC (μg/ml) at 24 hours, P. aeruginosa, duplicate lines per compound): 128 µg/mL
Cl.N=C(N)N/N=C/c1ccc(Cl)cc1 [NCL030]	greatest activity	64	64 µg/mL	>128 µg/mL	highest level of Gram-negative antibacterial activity	greatest activity	128	128	128	–
Cl.N=C(N)N/N=C/c1ccc(C(F)(F)F)cc1 [NCL041]	greatest activity	64	64 µg/mL	128 µg/mL and 64 µg/mL	highest level of Gram-negative antibacterial activity	greatest activity	64	64	128	–
Cl.N=C(N)N/N=C/c1cccc(Cl)c1 [NCL052]	greatest activity	128	128 µg/mL	>128 µg/mL	highest level of Gram-negative antibacterial activity	greatest activity	128	128	128	–
Cc1ccc(/C=N/NC(=N)N)cc1.Cl [NCL044]	greatest activity	128	128 µg/mL	>128 µg/mL	highest level of Gram-negative antibacterial activity	greatest activity	128	128	128	–
Cl.N=C(N)NN=Cc1ccc(F)cc1 [NCL053]	–	>128	>128 µg/mL	>128 µg/mL	highest level of Gram-negative antibacterial activity	–	>128	>128	128	–
CCCC/C(=N\NC(=N)N)c1ccc(Cl)cc1.Cl [NCL188, (E)-2-(1-(4-chlorophenyl)pentylidene)hydrazine-1-carboximidamide Hydrochloride]	greatest activity	–	–	–	highest level of Gram-negative antibacterial activity	greatest activity	–	–	–	MIC ([1]; bioassay ranking, read-out: VRE): 16 µg/mL; M + R [6]: 16 µg/mL; MIC ([4]; bioassay ranking, read-out: MRSA): 16 µg/mL
O=C(O)c1cn(C2CC2)c2cc(N3CCNCC3)c(F)cc2c1=O [Ciprofloxacin]	–	–	–	–	–	–	–	–	–	FICI ([7]; FIC index of antibiotic with NCL812): 0.75 and 0.525 and 0.625 and 0.562; Antibiotic MIC Alone ([7]; antibiotic alone): 0.125 µg/mL and 0.25 µg/mL; Result (interaction with NCL812) ([7]; antibiotic with NCL812): NE (No effect (NE) was defined as 0.5<FICI<4); inhibition of DNA synthesis [8]: approximately 51%
